# Results reported in US4264625A, “Pesticidal unsymmetrical bis-arylcarbamate sulfide compounds” (Union Carbide Corporation, priority 1978, dated 1981).
# Key:
# Type in all cases: in vivo
# [1] = test system: southern armyworm (Prodenia eridania, (Cram.)); test: Southern Armyworm Leaf Spray Test; design: key: A: excellent control; B: partial control; C: no control; settings: 500 ppm leaf spray, larvae, three days, mortality rating
# Procedure: (§1) Suspensions of the test compounds were prepared by dissolving one gram of compound in 50 milliliters of acetone in which had been dissolved 0.1 gram (10 percent of the weight of compound) of an alkylphenoxy polyethoxyethanol surfactant, as an emulsifying or dispersing agent. The resulting solution was mixed into 150 milliliters of water to give roughly 200 milliliters of a suspension containing the compound in finely divided form. The thus-prepared stock suspension contained 0.5 percent by weight of compound. The test concentrations in parts per million by weight employed in the tests described hereinbelow were obtained by appropriate dilutions of the stock suspension with water. The test procedures were as follows:
# Southern Armyworm Leaf Spray Test
# Larvae of the southern armyworm (Prodenia eridania, (Cram.)), reared on Tendergreen bean plants at a temperature of 80°±5° F. and a relative humidity of 50±5 percent, constituted the test insects.
# The test compounds were formulated by diluting the stock suspension with water to give a suspension containing 500 parts of test compound per million parts of final formulation. Potted Tendergreen bean plants of standard height and age were placed on a revolving turntable and sprayed with 100-110 milliliters of test compound formulation by use of a DeVilbiss spray gun set at 10 psig air pressure. This application, which lasted 25 seconds, was sufficient to wet plants to run-off. As a control, 100-110 milliliters of a water-acetone-emulsifier solution containing no test compound were also sprayed on infested plants. When dry, the paired leaves were separated and each one was placed in a 9 centimeter Petri dish lined with moistened filter paper. Five randomly selected larvae were introduced into each dish and the dishes were closed. The closed dishes were labeled and held at 80°-85° F. for three days. Although the larvae could easily consume the whole leaf within twenty-four hours, no more food was added. Larvae which were unable to move the length of the body, even upon stimulation by prodding, were considered dead. Percent mortality was recorded for various concentration levels.
# (§2) In these tests the pesticidal activity of the compounds against aphid, mite, Southern Armyworm, Bean Beetle and house fly was rated as follows: […]
# Tomato = settings: 2500 ppm spray, ten days, rating 1-5
# Procedure: (§3) POST-EMERGENT HERBICIDAL TEST
# (§4) Experiments were also conducted to determine the phytotoxicity of representative compositions with respect to healthy fresh plants. Solutions of the compounds were prepared as described above to provide a concentration of 2500 parts per million of the test compound. The test plants were sprayed in accordance with the procedure described above for the Mite Foliage Spray Test so as to deliver approximately 100 milliliters of test solution to the leaves of each plant tested. The sprayed plants and controls were set aside for approximately one hour to allow the solutions to dry and were then placed in the greenhouse. After ten days the plants were visually inspected to determine the extent of foliage injury. A rating of 1 indicates no perceptible injury; 5 indicates the plant was dead and ratings of 2, 3 and 4 indicate intermediate degrees of injury based upon the number and extent to which leaves were injured.
# Cotton = settings: 2500 ppm spray, ten days, rating 1-5
# Procedure: as §3, §4
# Soybean = settings: 2500 ppm spray, ten days, rating 1-5
# Procedure: as §3, §4
# Bean = settings: 2500 ppm spray, ten days, rating 1-5
# Procedure: as §3, §4
# Corn = settings: 2500 ppm spray, ten days, rating 1-5
# Procedure: as §3, §4
# [2] = test system: house flies (Musca domestica, L.); test: Fly Bait Test; design: key: A: excellent control; B: partial control; C: no control; settings: 500 ppm in sugar-solution bait, 24 hours, mortality rating
# Procedure: as §1
# Four to six day old adult house flies (Musca domestica, L.) reared according to the specifications of the Chemical Specialties Manufacturing Association (Blue Book, McNair-Dorland Co., N.Y. 1954; pages 243-244, 261) under controlled conditions of 80°±5° F. and 50±5 percent relative humidity, were the test insects. The flies were immobilized by anesthetizing with carbon dioxide and twenty five immobilized individuals, males and females, were transferred to a cage consisting of a standard food strainer about five inches in diameter which was inverted over a wrapping-paper-covered surface. The test compounds were formulated by diluting the stock suspension with a 10 percent (by weight) sugar solution to give a suspension containing 500 parts of test compound per million parts of final formulation, by weight. Ten milliliters of the test formulation were added to a souffle cup containing a one-inch square of an absorbent cotton pad. This bait cup was introduced and centered on the blotting paper under the food strainer prior to admitting the anesthetized flies. The caged flies were allowed to feed on the bait for twenty four hours, at a temperature of 80°±5° F. and the relative humidity of 50±5 percent.
# as §2
# [3] = test system: two-spotted mite (Tetranychus urticae Koch); test: Mite Foliage Spray Test; design: key: A: excellent control; B: partial control; C: no control; settings: 500 ppm foliage spray, six days, mortality rating
# Procedure: as §1
# Adults and nymphal stages of the two-spotted mite (Tetranychus urticae Koch), reared on Tendergreen bean plants at 80±5 percent relative humidity, were the test organisms. Infested leaves from a stock culture were placed on the primary leaves of two bean plants six to eight inches in height, growing in a two-and-a-half inch clay pot. 150-200 Mites, a sufficient number for testing, transferred from the excised leaves to the fresh plants in a period of twenty four hours. Following the twenty four hour transfer period, the excised leaves were removed from the infested plants. The test compounds were formulated by diluting the stock suspension with water to give a suspension containing 500 parts of test compound per million parts of final formulation. The potted plants (one pot per compound) were placed on a revolving turntable and sprayed with 100-110 milliliters of test compound formulation by use of a DeVilbiss spray gun set at 40 psig. air pressure. This application, which lasted 25 seconds, was sufficient to wet the plants to run-off. As a control, 100-110 milliliters of a water solution containing acetone and emulsifier in the same concentrations as the test compound formulation, but containing no test compound, were also sprayed on infested plants. The sprayed plants were held at 80±5 percent relative humidity for six days, after which a mortality count of motile forms was made. Microscopic examination for motile forms was made on the leaves of the test plants. Any individual which was capable of locomotion upon prodding was considered living.
# as §2
# [4] = test system: Mexican bean beetle (Epilachna varivestis, Muls.); test: Mexican Bean Beetle Leaf Spray Test; design: key: A: excellent control; B: partial control; C: no control; settings: 500 ppm leaf spray, fourth instar larvae, three days, mortality rating
# Procedure: as §1
# Mexican Bean Beetle Leaf Spray Test
# Fourth instar larvae of the Mexican bean beetle (Epilachna varivestis, Muls.), reared on Tendergreen bean plants at a temperature of 80°±5° F. and 50±5 percent relative humidity, were the test insects.
# The test compounds were formulated by diluting the stock suspension with water to give a suspension containing 500 parts of test compound per million parts of final formulation. Potted Tendergreen bean plants of standard height and age were placed on a revolving turntable and sprayed with 100-110 milliliters of test compound formulation by use of a DeVilbiss spray gun set at 10 psig air pressure. This application, which lasted 25 seconds, was sufficient to wet plants to run-off. As a control, 100-110 milliliters of a water-acetone-emulsifier solution containing no test compound were also sprayed on infested plants. When dry, the paired leaves were separated and each was placed in a 9 centimeter Petri dish lined with moistened filter paper. Five randomly selected larvae were introduced into each dish, and the dishes were closed. The closed dishes were labeled and held at a temperature of 80°±5° F. for three days. Although the larvae could easily consume the leaf within 24 to 48 hours, no more food was added. Larvae which were unable to move the length of the body, even upon stimulation, were considered dead.
# as §2
# [5] = test system: bean aphid (Aphis fabae Scop.); test: Bean Aphid Foliage Spray Test; design: key: A: excellent control; B: partial control; C: no control; settings: 500 ppm foliage spray, 24 hours, mortality rating
# Procedure: as §1
# Bean Aphid Foliage Spray Test
# Adults and nymphal stages of the bean aphid (Aphis fabae Scop.) reared on potted dwarf nasturtium plants at 65°-70° F. and 50-70 percent relative humidity, constituted the test insects. For testing purposes, the number of aphids per pot was standardized to 100-150 by trimming plants containing excess aphids.
# The test compounds were formulated by diluting the stock suspension with water to give a suspension containing 500 parts of test compound per million parts of final formulation.
# The potted plants (one pot per compound tested) infested with 100-150 aphids, were placed on a revolving turntable and sprayed with 100-110 milliliters of test compound formulation by use of a DeVilbiss spray gun set at 40 psig. air pressure. This application, which lasted 25 seconds, was sufficient to wet the plants to run-off. As a control, 100-110 milliliters of a water-acetone-emulsifier solution containing no test compound were also sprayed on infested plants. After spraying, the pots were placed on their sides on a sheet of white standard mimeograph paper which had been previously ruled to facilitate counting. Temperature and humidity in the test room during the 24 hour holding period were 65°-70° F. and 50-70 percent, respectively. Aphids which fell onto the paper and were unable to remain standing after being uprighted were considered dead. Aphids remaining on the plants were observed closely for movement and those which were unable to move the length of the body upon stimulation by prodding were considered dead. Percent mortality was recorded for various concentration levels.
# as §2
SMILES,"Pesticidal Activity, Southern Armyworm [1]","Phytotoxicity, Tomato (Tomato)","Phytotoxicity, Cotton (Cotton)","Phytotoxicity, Soybean (Soybean)","Phytotoxicity, Bean (Bean)","Phytotoxicity, Corn (Corn)","Pesticidal Activity, House fly [2]","Pesticidal Activity, Mite [3]","Pesticidal Activity, Mexican Bean Beetle [4]","Pesticidal Activity, Aphid [5]"
CN(SN(C)C(=O)Oc1ccccc1C1SCCS1)C(=O)Oc1ccccc1C1SCCS1,A,1,1,1,1,1,A,C,A,A
C=CCc1ccc(OC(=O)N(C)SN(C)C(=O)Oc2ccc(CC=C)cc2OC)c(OC)c1,C,1,1,1,1,1,C,C,C,C
Cc1cc(OC(=O)N(C)SN(C)C(=O)Oc2ccc(N=CN(C)C)c(C)c2)ccc1N=CN(C)C [drawing 39],A,1,1,2,2,1,A,A,A,A
CCCCCCCCCc1ccc(OC(=O)N(C)SN(C)C(=O)Oc2cccc3ccccc23)cc1,A,1,1,1,1,1,C,C,A,C
C#CCOc1ccccc1OC(=O)N(C)SN(C)C(=O)Oc1cccc2ccccc12,A,1,1,2,1,1,A,C,A,A
CCCCCCCCCCCCc1ccc(OC(=O)N(C)SN(C)C(=O)Oc2cccc3ccccc23)cc1,A,1,1,1,1,1,C,C,A,C
Cc1cc(OC(=O)N(C)SN(C)C(=O)Oc2ccc(N=CN(C)C)c(C)c2)ccc1N=CN(C)C [drawing 41],A,1,1,2,1,1,A,A,A,A
